According to patent US8940798B2, “Compounds useful for treating and/or preventing disease-associated bone loss” (Centre National de al Recherche Scientifique (CNRS), priority 2011, dated 2015):

Assays:
[1] = test system: B16F10 melanoma cells; assay: Bone metastasis model, B16F10 melanoma cells expressing luciferase in C57B1/6 mice; type: in vivo, mouse; settings: 15 mg/d/kg intraperitoneal every day for 12 days; measured at days 7, 10 and 12
Text: The metastatic tumor cells in the bone matrix produce factors that directly or indirectly stimulate osteoclast differentiation and bone resorbing activity. In return, by resorbing it, the osteoclasts liberate growth factors embedded within the bone matrix that will stimulate the proliferation of metastatic cells. […] C21 being an efficient inhibitor of bone resorption, it was further assayed for its ability to slow down metastatic cell proliferation within the bone marrow. B16-F10 cells are derived from a C57B1/6 mouse melanoma and have a strong tropism for the bone. They are classically used as a model for bone metastases.
19 C57B1/6 mice received an injection of 10^5 B16F10 melanoma cells expressing luciferase in the left ventricle, 9 mice received the C21 compound (test group), 15 mg/d/kg solubilized in 100 μl of 5% EtOH and 4% solutol, every days for 12 days, as an intraperitoneal injection, and the other 10 mice (control group) received 100 μl of 5% ethanol/4% solutol vehicle solution.
The proliferation of B16F10 cells was followed by their bioluminescence, measured at days 7, 10 and 12 after injection of the cells (FIG. 20).

[2] = test system: osteoclasts (OCs); assay: Resorption of calcium-phosphate matrices by OCs; type: cell-based, mouse; settings: 25 μM C21 (not shown)
Protocol: BMMs were isolated from long bones of 4- to 8-week-old animals as described (16) and OCs obtained by culturing BMMs with RANKL (100 ng/ml) and M-CSF (10 ng/ml) (Peprotech) for 5 days. RAW264.7 cells were grown for 5 days with RANKL (50 ng/ml) to obtain OCs. For resorption, OCs were differentiated in multiwell chambers or on coverslips coated with calcium phosphate (Osteologic Biocoat, BD Bioscience) or in 96-well plates containing a bovine bone slice (IDS Nordic Bioscience). Mesenchymal stem cells (MSCs) were isolated from mouse bone marrow and grown as described (18).
OCs in multiwell Osteologic Biocoat were fixed at day 7 of differentiation and calciumphosphate was stained with von Kossa as described (BRAZIER et al, 2009, see above). The entire well surface was imaged using a Zeiss AxioimagerZ1 microscope. Well image was reconstituted and resorbed areas were measured using MetaMorph 7.0 software (Molecular Devices). For bone resorption assays, OCs were derived from BMMs in 96-well plates containing bovine bone slices. At day 5 of differentiation, medium was changed with fresh medium. After 2 days, CTx concentrations were measured using Crosslap (IDS Nordic Bioscience). […]

[3] = test system: osteoclasts (OCs); assay: TRAP staining of OCs to ascertain absence of toxicity; type: cell-based; settings: 25 μM C21 vs DMSO (not shown)
Text: OCs were fixed and stained for DNA, actin or vinculin or TRAP as described (16,19).
To confirm the essential role of Rac1 activation by Dock5 in the resorption process, it was sought for a chemical inhibitor of Dock5 exchange activity active in cell cultures. The inventors therefore took advantage of a yeast-based assay that they have developed (BLANGY et al., Identification of TRIO-GEFD1 chemical inhibitors using the yeast exchange assay, 2006, Biol Cell 98(9):511-22 and BOUQUIER et al. A cell active chemical GEF inhibitor selectively targets the Trio/RhoG/Rac1 signaling pathway, 2009, Chem Biol 16(6):657-66.). They constructed a yeast strain where Rac1 activation by Dock5 DHR2 induces the expression of the his3 reporter gene (FIG. 5A), which leads to faster yeast growth in Histidine deprived medium (FIG. 5B). A library of 2,640 heterocyclic commercial chemical compounds as described previously was screened (BOUQUIER et al., see above) for molecules able to inhibit growth of Dock5 DHR2-expressing yeasts in Histidine deprived medium without affecting growth in Histidine complemented medium. C21: N-(3,5-dichlorophenyl)benzenesulfonamide was then identified (FIG. 5C). […] In parallel, control OCs grown in the presence of DMSO or 25 μM C21 were stained for TRAP to ascertain C21 was not toxic (not shown).

`O=S(=O)(Nc1cc(Cl)cc(Cl)c1)c1ccccc1` [C21, N-(3,5-dichlorophenyl)benzenesulfonamide] was tested, and the “Proliferation of B16F10 cells, bioluminescence in the tibia” value [1] was “markedly slowed down”, the “Resorption of calcium-phosphate matrices” value [2] was “efficiently inhibits” and the “Toxicity to OCs by TRAP staining” value [3] was “not toxic”.
